{"source": "BigSolDB 2.1"}
{"smiles": "O=C(NC[C@H]1CN(c2ccc(N3CCOCC3=O)cc2)C(=O)O1)c1ccc(Cl)s1", "values": [{"measurement": "solubility (mole fraction)", "setting": "in dichloromethane, 283.15 K", "value": 0.000254}, {"measurement": "solubility (mole fraction)", "setting": "in dichloromethane, 288.15 K", "value": 0.00028}, {"measurement": "solubility (mole fraction)", "setting": "in dichloromethane, 293.15 K", "value": 0.000308}, {"measurement": "solubility (mole fraction)", "setting": "in dichloromethane, 298.15 K", "value": 0.000338}, {"measurement": "solubility (mole fraction)", "setting": "in dichloromethane, 303.15 K", "value": 0.00037}, {"measurement": "solubility (mole fraction)", "setting": "in dichloromethane, 308.15 K", "value": 0.000403}, {"measurement": "solubility (mole fraction)", "setting": "in ethanol, 283.15 K", "value": "1.21e-05"}, {"measurement": "solubility (mole fraction)", "setting": "in ethanol, 288.15 K", "value": "1.46e-05"}, {"measurement": "solubility (mole fraction)", "setting": "in ethanol, 293.15 K", "value": "1.75e-05"}, {"measurement": "solubility (mole fraction)", "setting": "in ethanol, 298.15 K", "value": "2.09e-05"}, {"measurement": "solubility (mole fraction)", "setting": "in ethanol, 303.15 K", "value": "2.5e-05"}, {"measurement": "solubility (mole fraction)", "setting": "in ethanol, 308.15 K", "value": "2.94e-05"}, {"measurement": "solubility (mole fraction)", "setting": "in methanol, 283.15 K", "value": "2.41e-05"}, {"measurement": "solubility (mole fraction)", "setting": "in methanol, 288.15 K", "value": "2.97e-05"}, {"measurement": "solubility (mole fraction)", "setting": "in methanol, 293.15 K", "value": "3.63e-05"}, {"measurement": "solubility (mole fraction)", "setting": "in methanol, 298.15 K", "value": "4.42e-05"}, {"measurement": "solubility (mole fraction)", "setting": "in methanol, 303.15 K", "value": "5.29e-05"}, {"measurement": "solubility (mole fraction)", "setting": "in methanol, 308.15 K", "value": "6.36e-05"}, {"measurement": "solubility (mole fraction)", "setting": "in n-butanol, 283.15 K", "value": "5.56e-06"}, {"measurement": "solubility (mole fraction)", "setting": "in n-butanol, 288.15 K", "value": "7.84e-06"}, {"measurement": "solubility (mole fraction)", "setting": "in n-butanol, 293.15 K", "value": "1.08e-05"}, {"measurement": "solubility (mole fraction)", "setting": "in n-butanol, 298.15 K", "value": "1.48e-05"}, {"measurement": "solubility (mole fraction)", "setting": "in n-butanol, 303.15 K", "value": "2.01e-05"}, {"measurement": "solubility (mole fraction)", "setting": "in n-butanol, 308.15 K", "value": "2.73e-05"}, {"measurement": "solubility (mole fraction)", "setting": "in n-propanol, 283.15 K", "value": "7.99e-06"}, {"measurement": "solubility (mole fraction)", "setting": "in n-propanol, 288.15 K", "value": "1.05e-05"}, {"measurement": "solubility (mole fraction)", "setting": "in n-propanol, 293.15 K", "value": "1.37e-05"}, {"measurement": "solubility (mole fraction)", "setting": "in n-propanol, 298.15 K", "value": "1.77e-05"}, {"measurement": "solubility (mole fraction)", "setting": "in n-propanol, 303.15 K", "value": "2.26e-05"}, {"measurement": "solubility (mole fraction)", "setting": "in n-propanol, 308.15 K", "value": "2.88e-05"}]}
